Data set [1] concerns primary human newborn dermal fibroblasts. Put plainly: Determination of cell yields (Coulter counts). It counts as cell-based. How it is done:
(§1) Cell culture followed previously published methods.^92 Primary human newborn dermal fibroblasts were cultured from neonatal circumcised foreskin specimens. The skin samples were treated overnight in a 0.25% trypsin solution at 4° C. to separate the epidermis from the dermis. The separated dermis was then cut into pieces and plated onto etched plastic tissue culture dishes. Primary culture medium consisted of DMEM supplemented with 10% bovine CS, 50 U/ml penicillin and 50 μg/ml streptomycin sulfate. […] Secondary culture medium consisted of DMEM supplemented with 10% CS.
Equal numbers of fibroblasts were seeded into 32 mm culture dishes, and paired dishes were treated with pTT or diluent control as described above. At 24, 48 and 72 hours of treatment, the cells were harvested by trypsinization and counted in an automated cell counter (Coulter Z Series, Beckman Coulter, Inc., Fullerton, Calif.). The experiments were conducted in parallel with the MTS assay, using the same donor cells.
Cell yields of pTT-treated fibroblasts were compared to diluent using 2-way ANOVA and a total of four different experiments, to identify significant difference between treatment groups as a function of cell number and time. The parallel MTS assay also utilized the 2-way ANOVA, to compare changes in OD at 492 nm as a function of time and treatment modality. […]

The conditions of data set [2]: 100 μM pTT, in vitro and in mouse models in vivo; cited from earlier work.
For the next data set, the system named is SOD1 mRNA. Briefly: Northern blot analysis of antioxidant enzyme mRNA: SOD1. Type of data set: cell-based, human. As to conditions: 100 μM pTT, 8-72 hours, three donors. How it is done:
as §1
(§2) Purified 5′-phosphorylated thymidine dinucleotides (pTT) (Midland Certified Reagents, Inc., Texas) purified by gel filtration and analyzed by mass spectroscopy, were obtained in lyophilized form. […] The stock solution was syringe filter-sterilized through a 0.2 μm pore filter and spectrophotometrically analyzed (absorbance at 260 and 280 nm) to determine the concentration, and frozen in aliquots at −20° C. […]
(§3) Cells were harvested in Trizol (Gibco BRL, Gaithersburg, Md.) and stored at −70° C. […] RNA solutions were measured by spectrophotometer readings at 260 nm and 280 nm to determine concentration and purity. […]
(§4) Northern and western films as well as stained membranes and pictures of ethidium bromide-stained gels were digitally scanned and analyzed by densitometry. […]

The next data set concerns GPX mRNA. Briefly: Northern blot analysis of antioxidant enzyme mRNA: GPX. Type of data set: cell-based, human. The conditions noted are these: 100 μM pTT, 8-72 hours. How it is done: as §1, §2, §3, §4
The test system of another data set is phospho-p53 (Ser-15). Put plainly: Western blot of activated p53 (serine-15 phosphorylation). The conditions noted are these: by 36-48 hours, sustained through 72 hours; 40 μM TO, 100 μM pTT. It counts as cell-based, human. How it is done:
(§5) Western blot analysis of proteins from cells treated and harvested in parallel with DCF time course studies was conducted as described above. Membranes were reacted with antibodies to total p53/DO-1 (1:1000 dilution, Oncogene Research Products, Cambridge, Mass.), anti-phoso-p53 (Ser-15) (1:1000 dilution, Cell Signaling Technology, Beverly, Mass.), and p21/Cip1/Waf1 (1:500 dilution, Transduction Laboratories, Lexington, Ky.), followed by appropriate secondary antibodies diluted 1:2000.
(In general: A western blot detects proteins with antibodies after separation by electrophoresis.)

A further data set relates to total p53 protein. Put plainly: Western blot of total p53 (DO-1). Type of data set: cell-based, human. The conditions noted are these: by 36-48 hours, sustained through 72 hours; 40 μM TO, 100 μM pTT. The procedure:
as §5

Another data set relates to tumor formation. The conditions noted are these: nude mice repeatedly exposed to solar simulated UV; cited from earlier work.
The subject of another data set is melanoma tumors. The conditions noted are these: SCID mouse model; cited from earlier work.
A further data set concerns p21/Cip1/Waf1 protein. Briefly: Western blot of p21/Cip1/Waf1. Type of data set: cell-based, human. The conditions noted are these: by 36-48 hours, sustained through 72 hours; 40 μM TO, 100 μM pTT. How it is done:
as §5

{P} = phosphate

Data on 2 substances can be found in patent US20100286247A1, “Methods of Protection from Oxidative Stress” (Trustees of Boston University, priority 2005, published 2010).

Turning to “5′-phosphorylated thymidine dinucleotides [pTT]”, the “rate of fibroblast growth (cell yields) during treatment vs diluent” value in [1] (100 μM pTT, 24-72 hours, 2-way ANOVA p=0.0079) is reported as “significantly decreased”. Besides, the “growth after replating in regular medium vs diluent-pretreated cells” value in [1] (72 hours pretreatment with 100 μM pTT, no H2O2, p=0.0006) is given as “significantly stimulated growth”. For the same substance, the “nucleotide excision DNA repair and UV resistance” value in [2] is “stimulates enhanced nucleotide excision DNA repair and resistance to subsequent UV irradiation”. Further, in the data set on SOD1 mRNA, the “SOD1 mRNA level compared to diluent” value was “no difference between pTT- and diluent-treated cells”. The “GPX mRNA level compared to diluent” value in the data set on GPX mRNA was “remain unchanged”.
For “pGTTAGGGTTAG (5' {P}, sugars by position and backbone not given here) [TO]”, the “phospho-p53-ser15 response, TO vs pTT” value with phospho-p53 (Ser-15) is listed as “greater than to pTT”. In the data set with total p53 protein, the “total p53 (DO-1) protein response, TO vs pTT” value is given as “greater than to pTT”. Also, the “incidence of tumor formation” value in the data set on tumor formation is “decreased the incidence of tumor formation”. Also, the melanoma tumors entry in the data set with melanoma tumors is “reduced melanoma tumors”. Further, in the data set on p21/Cip1/Waf1 protein, the “p21 protein response, TO vs pTT” value is listed as “greater than to pTT”.
